Measurements reported in ChEMBL document CHEMBL1799965, “Synthesis of useful fragments in drug discovery: 2-Amino-5-tert-butylpyridine and its oxidised analogues” (Bioorg Med Chem Lett, 2011).
≈ marks a conversion by molar mass, not a printed value.

Tests used:
[1] = Membrane affinity to immobilized artificial membrane by HPLC method; type: physicochemical
[2] = biological target: Albumin (Homo sapiens, UniProt P02768); assay: Binding affinity to human serum albumin by HPLC method
[3] = Solubility of the compound in buffer at pH 6.8; type: physicochemical
[4] = Solubility of the compound in simulated fasted intestinal fluid; type: physicochemical; details: simulated gi fluid
[5] = Lipophilicity, Log D of the compound by HPLC method; type: physicochemical

Albumin, sequence (P02768 whole entry): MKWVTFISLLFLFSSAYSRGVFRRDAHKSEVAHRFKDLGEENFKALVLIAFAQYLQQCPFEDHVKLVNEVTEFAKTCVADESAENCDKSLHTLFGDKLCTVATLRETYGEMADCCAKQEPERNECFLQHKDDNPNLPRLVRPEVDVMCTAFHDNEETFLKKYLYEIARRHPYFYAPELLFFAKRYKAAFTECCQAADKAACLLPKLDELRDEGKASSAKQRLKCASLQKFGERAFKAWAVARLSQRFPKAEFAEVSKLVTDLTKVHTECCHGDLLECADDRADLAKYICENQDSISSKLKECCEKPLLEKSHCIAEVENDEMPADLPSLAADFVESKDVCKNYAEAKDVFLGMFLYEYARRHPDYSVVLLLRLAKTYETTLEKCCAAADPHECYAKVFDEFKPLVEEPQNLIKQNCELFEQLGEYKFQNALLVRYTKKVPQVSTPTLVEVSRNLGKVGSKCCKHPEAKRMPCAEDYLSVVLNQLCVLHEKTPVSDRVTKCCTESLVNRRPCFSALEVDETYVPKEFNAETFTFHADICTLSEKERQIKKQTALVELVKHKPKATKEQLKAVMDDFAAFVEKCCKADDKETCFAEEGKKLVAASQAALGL

| Structure (SMILES) | CHI [1] | Activity [2] [%] | solubility [3] [µM] | solubility [4] [µM] | logD [5] |
| --- | --- | --- | --- | --- | --- |
| CC(C)(C)c1ccc(N)cc1 | 35.5 | 78.5 | < 5 | < 5 | 2.83 |
| CC(C)(C)c1ccc(N)nc1 | 33 | 38.9 | 59 (≈ 8.86 µg/mL) | 72 (≈ 10.8 µg/mL) | 1.53 |
